Assay [1] has as its system CP70 ovarian cancer cell line. Put plainly: Proliferation assay (MTT). Type of assay: cell-based. Conditions: Table 2.2 (further studies); Ovarian CP70; read-out: IC50.
Another assay concerns CCRF-CEM (Leukemic). Briefly: Proliferation assay (MTT). Type of assay: cell-based. Particulars: Homo sapiens, CCRF-CEM, Table 2.2; Leukaemia CCRF-CEM. The method, then:
(§1) All cultures were supplemented with 10% FCS (fetal calf serum CSL, Australia), penicillin (100 U/ml), streptomycin ([…]), L-glutamine (2 mM) and sodium bicarbonate (1.2 g/L), and cultured at 37° C. in a humidified atmosphere of 5% CO2. All cell lines were purchased from ATCC (Maryland, USA) except where noted.
(§2) IC50 values were determined for each cell line. Cells were seeded in 96-well plates at an appropriate cell density as determined from growth kinetics analysis and cultured for 5 days in the absence and presence of the test compounds. Cell proliferation was assessed after the addition of 20 μl of 3-4,5 dimethylthiazol-2,5-diphenyl tetrazolium bromide (MTT, 2.5 mg/ml in PBS, Sigma) for 3-4 hrs at 37° C. according to manufacturer's instructions. IC50 values were calculated from semi-log plots of % of control proliferation on the y-axis against log dose on the x-axis.

Another assay has as its system HT-29 (Colorectal). Put plainly: Proliferation assay (MTT). The format is cell-based. Conditions: Homo sapiens, HT-29, Table 2.2; Colorectal HT-29. The method, then: as §1, §2
Another assay relates to HTB-138 (Glioma). Briefly: Proliferation assay (MTT). The format is cell-based. Particulars: Table 2.2; Glioma HTB-138. How it is done:
as §1, §2

For another assay, the system named is NCI-H460 (Lung). Put plainly: Proliferation assay (MTT). The format is cell-based. Conditions: Homo sapiens, NCI-H460, Table 2.2; NSC Lung NCI-H460. The method, then: as §1, §2
Assay [2] has as its system PC3 prostate cancer cell line. Put plainly: Proliferation assay (MTT). Type of assay: cell-based. Conditions: Table 2.2. The method, then: as §1, §2
The subject of assay [3] is MDA-MB-468 breast cancer cell line. Put plainly: Proliferation assay (MTT). Conditions: Homo sapiens, MDA-MB-468, Table 2.2; Breast MDA-MB-468; read-out: IC50. Type of assay: cell-based.
The test system of assay [4] is HPAC (CRL-2119) pancreatic cancer cell line. Put plainly: Proliferation assay (MTT). Type of assay: cell-based, human. Conditions: Homo sapiens, HPAC, Table 2.2; Pancreatic HPAC; read-out: IC50.
Assay [5] deals with MM200 melanoma cell line. Briefly: Proliferation assay (MTT). The format is cell-based. Particulars: Table 2.2; Melanoma MM200; read-out: IC50.
Another assay deals with PGE2. Briefly: Eicosanoid synthesis in LPS-stimulated murine macrophages (RAW 264.7). The format is cell-based, mouse. Particulars: 10 μM; negative values indicate inhibition. How it is done: (§3) The mouse macrophage cell line RAW 264.7 was cultured in DMEM supplemented with foetal calf serum (FCS), 2 mM glutamine and 50 U/ml penicillin/streptomycin. Subconfluent cells were detached from the flask by gentle scraping and 24-well plates seeded at 5×10^5 cells per well and allowed to adhere for 1 hr. Cells were then treated either test compound at a concentration of 10 μM (in 0.025% DMSO) or vehicle alone, and incubated for 1 hr. LPS 50 ng/ml (LPS—Sigma-Aldrich) was then added. After incubation for 16 hrs, culture media was collected and stored at −80° C. for ecosanoid measurements using enzyme immunometric assays (PGE2 and TXB2—Cayman Chemical).
(§4) Table 16: Percentage change in eicosanoid synthesis after incubating test compound at 10 μM compared with incubation with vehicle alone.

Another assay concerns TXB2. Described as above. Conditions: 10 μM; negative values indicate inhibition. The format is cell-based, mouse. How it is done: as §3, §4
The subject of a further assay is TNFα. Briefly: Inhibition of TNFα in LPS-stimulated murine macrophages (RAW 264.7). The format is cell-based, mouse. Conditions: for Inhibition of TNFα, dose dependence: over the concentration ranges tested. The method, then:
The mouse macrophage cell line RAW 264.7 was cultured in DMEM supplemented with FCS, 2 mM glutamine and 50 U/ml penicillin/streptomycin. Subconfluent cells were detached from the flask by gentle scraping and 24-well plates seeded at 5×10^5 cells per well and allowed to adhere for 1 hr. Cells were treated with either test agent (in 0.025% DMSO) or vehicle alone, 1 hr prior to the addition of 50 ng/ml LPS. After incubation for 16 hrs, culture media was collected and stored at −80° C. for TNFα measurement using an enzyme immunometric assay (Becton Dickinson).

The test system of assay [6] is Mel-RM melanoma cell line. Put plainly: HMC combination with doxorubicin (synergy). Type of assay: cell-based. Particulars: Table 12, single agent. How it is done: (§5) IC50 values were determined for each cell line. Cells were seeded in 96-well plates at an appropriate cell density as determined from growth kinetics analysis and cultured for 5 days in the absence and presence of the test compounds. […] IC50 values were calculated from semi-log plots of % of control proliferation on the y-axis against log dose on the x-axis.
(§6) 3-D model analysis of the cytotoxic interaction between drug A and drug B enables the representation of predicted inhibitory effect of two drugs in combination in 3 dimensions to reveal actual regions of synergy or antagonism. […] Theoretical Additivity was calculated from the cytotoxicities of drug A and drug B as monotherapies using the following formula which assumes the drugs are mutually exclusive inhibitors: […]
HMC synergy with doxorubicin was assessed either in combination over 5 days exposure or in sequence (HMC→doxorubicin) against the Mel-RM melanoma cell line.

For assay [7], the system named is Mel-RM melanoma cell line. Briefly: HMC combination with gemcitabine (synergy). Type of assay: cell-based. Conditions: Table 9, single agent. How it is done: as §2
(§7) 3-D model analysis of the cytotoxic interaction between drug A and drug B enables the representation of predicted inhibitory effect of two drugs in combination in 3 dimensions to reveal actual regions of synergy or antagonism. The 3D synergy plots are based on a theory of “Theretical Additivity” (TA) as outlined by Kanzawa et al (Int. J. Cancer 71, 311-319 (1997)). Theoretical Additivity was calculated from the cytotoxicities of drug A and drug B as monotherapies using the following formula which assumes the drugs are mutually exclusive inhibitors: […]
(§8) The TA is calculated for each combination of drug concentrations and subtracted from the observed experimental effect for each combination to give a measurement of synergisitic action.
HMC synergy with gemcitabine was assessed either in combination over 5 days exposure or in sequence (HMC→gemcitabine) against the Mel-RM melanoma cell line. It was difficult to assess for synergisitic toxicity using a change in IC50 as a measure of synergy due to HMC toxicity as monotherapy (Table 9). […] Evidence of synergy using the HMC-gemcitabine combination was further assessed using the HMC→gemcitabine sequence (24 hr exposure to each compound in sequence) against the melanoma cell line Mel-RM. Using change in IC50 to assess for synergy it was noted that HMC at concentrations of 2 and 1 μM markedly chemosensitised the Mel-RM cells to gemcitabine by >1000 fold. HMC-induced chemosensitisation of Mel-RM cells to gemcitabine was confirmed using 3D analysis of the data.

The next assay concerns 4405 melanoma cell line. Briefly: HMC combination with paclitaxel (synergy). The format is cell-based. Conditions: Table 10; single agent, 24 hr exposure; read-out: IC50, 24 hr (monotherapy). How it is done:
as §2, §7, §8
HMC synergy with paclitaxel was assessed either in combination over 5 days exposure or in sequence (HMC→paclitaxel) against the 4405 melanoma cell line. It was difficult to assess for synergisitic toxicity using a change in IC50 as a measure of synergy due to HMC toxicity as monotherapy (Table 10). […] Evidence of synergy using the HMC-paclitaxel combination was further assessed using the HMC→paclitaxel sequence (24 hr exposure to each compound in sequence) against the melanoma cell line 4405. Using change in IC50 to assess for synergy it was noted that HMC at concentrations of 2 μM markedly chemosensitised the 4405 cells to paclitaxel by >1000 fold (Table 10). HMC-induced chemosensitisation of […] cells to paclitaxel was confirmed using 3D analysis of the data.

Assay [8] deals with MM200 melanoma cell line. Put plainly: HMC combination with topotecan (synergy). The format is cell-based. Conditions: Table 11, single agent. The method, then:
as §5, §6
HMC synergy with topotecan was assessed either in combination over 5 days exposure or in sequence (HMC→topotecan) against the MM200 melanoma cell line.

[9] abbreviates: Concentration 10 μM, RAW 264.7, LPS 50 ng/ml, 16 hrs.
Setting [10] is: 120 h, 5 days exposure, read-out: IC50, Combined (monotherapy).
The mark [11] stands for this setting: 24 hr exposure, read-out: IC50, 24 hr (monotherapy).

The results in this text go back to US8163795B2, “Chroman derivatives, medicaments and use in therapy” (Marshall Edwards, Inc., priority 2004, dated 2012).

One may read the IC50 as the concentration at which inhibition is half-maximal. As to `Oc1ccc(C2COc3cc(O)ccc3C2c2ccccc2)cc1` (stereo not shown) [Compound 2, 3-(4-hydroxyphenyl)-4-phenylchroman-7-ol], the half-inhibitory concentration (IC50) in [1] was found to be 3 ± 1.2 µM; in the assay with CCRF-CEM (Leukemic), 4.02 µM; in the assay with HT-29 (Colorectal), 59.4 µM; with HTB-138 (Glioma), 3.77 µM; with NCI-H460 (Lung), 5.4 ± 2.1 µM; in assay [2], 4.2 ± 0.02 µM. Further, the IC50 in assay [3] turned out to be 1.9 µM; in [4], 24.4 ± 12 µM; with MM200 melanoma cell line [5], 7.34 µM. For the same molecule, in the assay with PGE2, the “Percentage change in PGE2 synthesis vs vehicle alone” value was −12.6%. In addition, in the assay on TXB2, the “Percentage change in TXB2 synthesis vs vehicle alone” value is given as 16%.
`COc1ccc(C2c3ccc(O)cc3OCC2c2ccc(OC)c(OC)c2)cc1` (stereo not shown) [Compound 4, 3-(3,4-dimethoxyphenyl)-4-(4-methoxyphenyl)chroman-7-ol]: the “Inhibition of TNFα” value was −14.3 with TNFα (Concentration 0.001 μM); −11.3 in the assay with TNFα (Concentration 0.01 μM); −6.3 in the assay on TNFα (Concentration 0.1 μM); −11.9 with TNFα (Concentration 1 μM); −6.1 in the assay with TNFα (setting [9]).
As for `COc1ccc(C2COc3cc(OC)ccc3C2c2ccc(OC)cc2)cc1` (stereo not shown) [Compound 6, 3-(4-methoxyphenyl)-4-(4-methoxyphenyl)-7-methoxychroman], the IC50 in [1] was more than 100 µM; in the assay on CCRF-CEM (Leukemic) it was 92 ± 81.6 µM; in the assay with HT-29 (Colorectal) it was more than 100 µM; in the assay on HTB-138 (Glioma), more than 100 µM; in [2], 116 ± 57 µM; in assay [3], 28.7 ± 3.6 µM. The IC50 (in [4]; in the assay with MM200 melanoma cell line [5]) was more than 100 µM each time. The “Inhibition of TNFα” value in the assay on TNFα (Concentration 0.001 μM) was 1.0; in the assay on TNFα (Concentration 0.1 μM), −10.4; in the assay on TNFα (Concentration 1 μM), −13.0; in the assay on TNFα (setting [9]) it was −48.7. The “Inhibition of TNFα, dose dependence” value with TNFα is “inhibit TNFα in murine macrophages in a dose dependent manner”. Further, the “Percentage change in PGE2 synthesis vs vehicle alone” value in the assay with PGE2 was −37.7%. For the same molecule, the “Percentage change in TXB2 synthesis vs vehicle alone” value in the assay on TXB2 is −16.4%.
Turning to `COc1cc(O)cc(OC)c1C1c2ccc(O)cc2OCC1c1ccc(O)cc1` (stereo not shown) [Compound 7, 3-(4-hydroxyphenyl)-4-(2,6-dimethoxy-4-hydroxyphenyl)chroman-7-ol], the “Inhibition of TNFα” value was 19.2 in the assay with TNFα (Concentration 0.001 μM), −1.4 in the assay with TNFα (Concentration 0.1 μM), −25.4 in the assay on TNFα (Concentration 1 μM) and −26.2 in the assay with TNFα (setting [9]). In the assay on TNFα, the “Inhibition of TNFα, dose dependence” value is recorded as “inhibit TNFα in murine macrophages in a dose dependent manner”.
In the case of `Nc1cccc(C2c3ccc(O)cc3OCC2c2ccc(O)cc2)c1` (stereo not shown) [Compound 14, 3-(4-hydroxyphenyl)-4-(3-aminophenyl)chroman-7-ol], the IC50 in assay [1] is more than 100 µM; in the assay with CCRF-CEM (Leukemic), 73 ± 51.6 µM; with HT-29 (Colorectal), 45 ± 4.7 µM; with HTB-138 (Glioma), 53.5 ± 14 µM; in the assay on NCI-H460 (Lung), 65 µM; in assay [2], 32.5 ± 2.1 µM. The half-maximal inhibitory concentration (IC50) in assay [3] is 56.6 µM; in assay [4] it was 79 ± 56 µM; in the assay with MM200 melanoma cell line [5], 93 ± 2.9 µM.
Take `COc1cccc2c1C(=O)c1c(O)c3c(c(O)c1C2=O)C[C@@](O)(C(=O)CO)C[C@@H]3O[C@H]1C[C@H](N)[C@H](O)[C@H](C)O1` [Doxorubicin, doxorubicin, reference compound]: the results for the IC50 in assay [6] (setting [10]) and in [6] (setting [11]) were 0.19 µM and 0.1 µM, respectively.
With `Nc1ccn([C@@H]2O[C@H](CO)[C@@H](O)C2(F)F)c(=O)n1` [Gemcitabine, gemcitabine, reference compound], the half-maximal inhibitory concentration (IC50) amounted to 0.00388 µM in assay [7] (setting [10]) and 0.00467 µM in assay [7] (setting [11]).
As for `CC(=O)O[C@H]1C(=O)[C@@]2(C)[C@H]([C@H](OC(=O)c3ccccc3)[C@]3(O)C[C@H](OC(=O)[C@H](O)[C@@H](NC(=O)c4ccccc4)c4ccccc4)C(C)=C1C3(C)C)[C@]1(OC(C)=O)CO[C@@H]1C[C@@H]2O` [Paclitaxel, paclitaxel, reference compound], the IC50 in the assay with 4405 melanoma cell line turned out to be 0.000584 µM.
Turning to `CC[C@@]1(O)C(=O)OCc2c1cc1n(c2=O)Cc2cc3c(CN(C)C)c(O)ccc3nc2-1` [Topotecan, topotecan, reference compound], the values for the IC50 in the assay on MM200 melanoma cell line [8] (setting [10]) and in the assay with MM200 melanoma cell line [8] (setting [11]) were 0.095 µM and 2.22 µM, respectively.
